Assay results as given in PubChem BioAssay AID602462 (NMMLSC, 2012).
The source made the active and inactive calls.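 The calls were made as follows: active = compounds passing through the artificial lipid membrane faster than 100 units at the neutral pH 7.4; inactive = the rest.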

System: PAMPA double-sink, GIT-0 lipid, UV read-out
Assay: artificial-membrane permeation in aqueous buffer – biophysical, double-sink PAMPA, pH 5.0/6.2/7.4, ADME assay for GPR30 and estrogen receptor ligands, late-stage follow-up (AID 602462)
Conditions: stronger effect = higher value; for permeability Pe pH 5.0: measured here: permeability at pH 5.0; for permeability Pe pH 6.2: measured here: permeability at pH 6.2

| permeability Pe pH 7.4 | permeability Pe pH 5.0 | permeability Pe pH 6.2 | SMILES |
| --- | --- | --- | --- |
| 0 10^-6 cm/s (inactive) | 0 10^-6 cm/s | 0 10^-6 cm/s | CC(=O)c1ccc2c(c1)[C@@H]1C=CC[C@@H]1[C@H](c1cc3c(cc1Br)OCO3)N2 |
| 117 10^-6 cm/s | 44 10^-6 cm/s | 120 10^-6 cm/s | COc1cc([N+](=O)[O-])cc2c1NC(C1CC=CCC1)C1CC=CC21 (stereo unspecified) |
